In PMC10673369, “Preliminary SAR of Novel Pleuromutilin–Polyamine Conjugates” (Microorganisms, 2023):
In brackets after ≈: the same amount, converted by molar mass.

Tests used:
[1] = system: E. coli ATCC 25922; experiment: MIC, broth dilution, E. coli; assay type: cell-based, Escherichia coli; conditions: for MIC: Escherichia coli, ATCC25922, mean (n = 3)
Procedure: The susceptibility of bacterial strains S. aureus (ATCC 25923), E. coli (ATCC 25922), and P. aeruginosa (ATCC 27853 or PAO1) to antibiotics and compounds was determined using reported protocols. Additional antimicrobial evaluation against MRSA (ATCC 43300), Klebsiella pneumoniae (ATCC 700603), A. baumannii (ATCC 19606), Candida albicans (ATCC 90028), and Cryptococcus neoformans (ATCC 208821) was undertaken at the Community for Open Antimicrobial Drug Discovery at The University of Queensland (Australia) according to their standard protocols as reported previously. […]
2.3. Antimicrobial Assays
The susceptibility of bacterial strains S. aureus (ATCC 25923), E. coli (ATCC 25922), and P. aeruginosa (ATCC 27853 or PAO1) to antibiotics and compounds was determined in microplates using the standard broth dilution method in accordance with the recommendations of the Comité de l’AntibioGramme de la Société Française de Microbiologie (CA-SFM). Briefly, the minimal inhibitory concentrations (MICs) were determined with an inoculum of 10^5 CFU in 200 µL of Mueller–Hinton broth (MHB) containing two-fold serial dilutions of each drug. The MIC was defined as the lowest […]
determine all MICs, the measurements were independently repeated in triplicate. Additional antimicrobial evaluation against MRSA (ATCC 43300), Klebsiella pneumoniae (ATCC 700603), A. baumannii (ATCC 19606), Candida albicans (ATCC 90028), and Cryptococcus neoformans (ATCC 208821) was undertaken at the Community for Open Antimicrobial Drug Discovery at The University of Queensland (Australia) according to their standard protocols as reported previously. […]

[2] = system: E. coli ATCC 25922; experiment: Antibiotic enhancement of erythromycin; assay type: cell-based; conditions: for Erythro/E.c.: fold change, ratio between intrinsic MIC of test compound and combination MIC: erythromycin at 2.7 µM; for Erythro/E.c.: concentration required to restore erythromycin activity: erythromycin at 2.7 µM (2 µg/mL)
Procedure: [Worded in the source for another target; used here, by the source, with some conditions changed.] Antibiotic restoring enhancer concentrations were determined using reported protocols (see Supplementary File).
Briefly, restoring enhancer concentrations were determined with an inoculum of 5x10^5 CFU in 200 µL of MHB containing two-fold serial dilutions of each derivative in the presence of doxycycline at 4.5 […]
The lowest concentration of the polyamine
These measurements were independently repeated in triplicate.
Outer membrane permeabilization was measured using nitrocefin as a chromogenic substrate of periplasmic β-lactamase. Ten milliliters of MH broth were inoculated with 0.1 mL of an overnight culture of PAO1 bacteria and grown at 37°C until the OD600 reached 0.5. The remaining steps were performed at room temperature. Cells were recovered by centrifugation (4000 rpm for 20 min) and washed once in 20 mM potassium phosphate buffer (pH 7.2) containing MgCl2 (1 mM). After a second centrifugation, the pellet was resuspended and adjusted to OD600 of 0.5. Then, 50 µL of the desired compound was added to 100 µL of the cell suspension to obtain a final concentration varying from 3.9 µM to 250 µM. Fifty microliters of nitrocefin were then added to obtain a final concentration of 50 µg/mL. Nitrocefin hydrolysis was monitored spectrophotometrically by measuring the increase in absorbance at 490 nm. Assays were performed in 96-well plates using a M200 Pro Tecan […]
HEK293 cells were counted manually in a Neubauer hemocytometer and plated at a density of 5,000 cells/well into each well of the 384-well plates containing the 25x (2 µL) concentrated compounds [26,27]. The medium used was Dulbecco's modified Eagle’s medium (DMEM), supplemented with 10% fetal bovine serum (FBS). Cells were incubated together with the compounds for 20 h at 37 °C, 5% CO2.
To measure cytotoxicity, 5 µL (equals 100 µM final) of resazurin was added to each well after incubation and incubated for further 3 h at 37 °C with 5% CO2. After the final incubation, fluorescence intensity […]
reader. CC50 values (concentration at 50% cytotoxicity) were calculated by normalizing the fluorescence readout, with 74 µg/mL tamoxifen as negative control (0%) and normal cell growth as positive control (100%). The concentration-dependent percentage cytotoxicity was fitted to a dose–response function (using Pipeline Pilot) and CC50 values were determined.
Human whole blood was washed three times with three volumes of 0.9% NaCl and then resuspended in the same solution to a concentration of 0.5 x 10^8 cells/mL, as determined by the manual cell count in a Neubauer hemocytometer. The washed cells were then added to the 384-well compound-containing plates for a final volume of 50 µL. After a 10 min shake on a plate shaker, the plates were then incubated for 1 h at 37 °C. After incubation, the plates were centrifuged at 1,000g for 10 min to pellet cells and debris; 25 µL of the supernatant was then transferred to a polystyrene 384-well assay plate. Hemolysis was determined by measuring the supernatant absorbance at […] (OD405). The absorbance was measured using a Tecan M1000 Pro monochromator plate reader. HC10 and HC50 (concentration at 10% and 50% hemolysis, respectively) were calculated by curve fitting the inhibition values vs. log (concentration) using a sigmoidal dose–response function with variable fitting values for the top, bottom, and slope.
2.8. Real-time growth curves
Solutions of the compound at concentrations of 2, 4, and 16 µg/mL were tested each in triplicate against S. aureus ATCC 25923 [26]. Typically, in a 96-well plate were placed 10 µL of 40, 80, and 320 µg/mL stock solutions of compound, as well as 190 µL of a 5 x 10^5 CFU/mL of the selected bacterial suspension in brain heart infusion (BHI) broth. Positive controls containing only 200 µL of a 5 x 10^5 CFU/mL of bacterial suspension in BHI and negative controls containing only 200 µL of BHI broth were added. The plate was incubated at 37°C in a TECAN Spark Reader (Roche Diagnostic) and real-time […]

| MIC [1] [µM] | MIC E.c. ([1]; mean (n = 3)) | Erythro/E.c.: fold change, ratio between intrinsic MIC of test compound and combination MIC [2] | SMILES | Erythro/E.c.: concentration required to restore erythromycin activity [2] [µM] |
| --- | --- | --- | --- | --- |
| 200 (≈ 98.8 µg/mL) | no activity | 0.5 | C=C[C@]1(C)C[C@@H](OC(=O)CSCCN(CC)CC)[C@]2(C)[C@H](C)CC[C@]3(CCC(=O)[C@H]32)[C@@H](C)[C@@H]1O [Compound 2, Tiamulin, reference compound] | > 405 |
| 18.1 | – | 2 | C=C[C@]1(C)C[C@@H](OC(=O)CNCCCNCCCCNCCCNCC(=O)O[C@@H]2C[C@@](C)(C=C)[C@@H](O)[C@H](C)[C@]34CCC(=O)[C@H]3[C@@]2(C)[C@H](C)CC4)[C@]2(C)[C@H](C)CC[C@]3(CCC(=O)[C@H]32)[C@@H](C)[C@@H]1O.O=C(O)C(F)(F)F.O=C(O)C(F)(F)F.O=C(O)C(F)(F)F.O=C(O)C(F)(F)F [Compound 9a, N^1,N^1′-(Butane-1,4-diyl)bis(N^3-(2-(((3aR,4R,5R,7S,8S,9R,9aS,12R)-8-hydroxy-4,7,9,12-tetramethyl-3-oxo-7-vinyldecahydro-4,9a-propanocyclopenta [8]annulen-5-yl)oxy)-2-oxoethyl)propane-1,3-diaminium) 2,2,2-trifluoroacetate] | – |
| 8.88 | – | 1 | C=C[C@]1(C)C[C@@H](OC(=O)CNCCCNCCCCCCNCCCNCC(=O)O[C@@H]2C[C@@](C)(C=C)[C@@H](O)[C@H](C)[C@]34CCC(=O)[C@H]3[C@@]2(C)[C@H](C)CC4)[C@]2(C)[C@H](C)CC[C@]3(CCC(=O)[C@H]32)[C@@H](C)[C@@H]1O.O=C(O)C(F)(F)F.O=C(O)C(F)(F)F.O=C(O)C(F)(F)F.O=C(O)C(F)(F)F [Compound 9b, N^1,N^1′-(Hexane-1,6-diyl)bis(N^3-(2-(((3aR,4R,5R,7S,8S,9R,9aS,12R)-8-hydroxy-4,7,9,12-tetramethyl-3-oxo-7-vinyldecahydro-4,9a-propanocyclopenta [8]annulen-5-yl)oxy)-2-oxoethyl)propane-1,3-diaminium) 2,2,2-trifluoroacetate] | 8.88 |
| 35.2 | – | 2 | C=C[C@]1(C)C[C@@H](OC(=O)CNCCCNCCCCCCCNCCCNCC(=O)O[C@@H]2C[C@@](C)(C=C)[C@@H](O)[C@H](C)[C@]34CCC(=O)[C@H]3[C@@]2(C)[C@H](C)CC4)[C@]2(C)[C@H](C)CC[C@]3(CCC(=O)[C@H]32)[C@@H](C)[C@@H]1O.O=C(O)C(F)(F)F.O=C(O)C(F)(F)F.O=C(O)C(F)(F)F.O=C(O)C(F)(F)F [Compound 9c, N^1,N^1′-(Heptane-1,7-diyl)bis(N^3-(2-(((3aR,4R,5R,7S,8S,9R,9aS,12R)-8-hydroxy-4,7,9,12-tetramethyl-3-oxo-7-vinyldecahydro-4,9a-propanocyclopenta [8]annulen-5-yl)oxy)-2-oxoethyl)propane-1,3-diaminium) 2,2,2-trifluoroacetate] | – |
| 70 | – | 2 | C=C[C@]1(C)C[C@@H](OC(=O)CNCCCNCCCCCCCCNCCCNCC(=O)O[C@@H]2C[C@@](C)(C=C)[C@@H](O)[C@H](C)[C@]34CCC(=O)[C@H]3[C@@]2(C)[C@H](C)CC4)[C@]2(C)[C@H](C)CC[C@]3(CCC(=O)[C@H]32)[C@@H](C)[C@@H]1O.O=C(O)C(F)(F)F.O=C(O)C(F)(F)F.O=C(O)C(F)(F)F.O=C(O)C(F)(F)F [Compound 9d, N^1,N^1′-(Octane-1,8-diyl)bis(N^3-(2-(((3aR,4R,5R,7S,8S,9R,9aS,12R)-8-hydroxy-4,7,9,12-tetramethyl-3-oxo-7-vinyldecahydro-4,9a-propanocyclopenta [8]annulen-5-yl)oxy)-2-oxoethyl)propane-1,3-diaminium) 2,2,2-trifluoroacetate] | – |
| 4.27 | – | 0.5 | C=C[C@]1(C)C[C@@H](OC(=O)CNCCCNCCCCCCCCCCNCCCNCC(=O)O[C@@H]2C[C@@](C)(C=C)[C@@H](O)[C@H](C)[C@]34CCC(=O)[C@H]3[C@@]2(C)[C@H](C)CC4)[C@]2(C)[C@H](C)CC[C@]3(CCC(=O)[C@H]32)[C@@H](C)[C@@H]1O.O=C(O)C(F)(F)F.O=C(O)C(F)(F)F.O=C(O)C(F)(F)F.O=C(O)C(F)(F)F [Compound 9e, N^1,N^1′-(Decane-1,10-diyl)bis(N^3-(2-(((3aR,4R,5R,7S,8S,9R,9aS,12R)-8-hydroxy-4,7,9,12-tetramethyl-3-oxo-7-vinyldecahydro-4,9a-propanocyclopenta [8]annulen-5-yl)oxy)-2-oxoethyl)propane-1,3-diaminium) 2,2,2-trifluoroacetate] | 8.54 |
| 4.19 | – | 0.5 | C=C[C@]1(C)C[C@@H](OC(=O)CNCCCNCCCCCCCCCCCCNCCCNCC(=O)O[C@@H]2C[C@@](C)(C=C)[C@@H](O)[C@H](C)[C@]34CCC(=O)[C@H]3[C@@]2(C)[C@H](C)CC4)[C@]2(C)[C@H](C)CC[C@]3(CCC(=O)[C@H]32)[C@@H](C)[C@@H]1O.O=C(O)C(F)(F)F.O=C(O)C(F)(F)F.O=C(O)C(F)(F)F.O=C(O)C(F)(F)F [Compound 9f, N^1,N^1′-(Dodecane-1,12-diyl)bis(N^3-(2-(((3aR,4R,5R,7S,8S,9R,9aS,12R)-8-hydroxy-4,7,9,12-tetramethyl-3-oxo-7-vinyldecahydro-4,9a-propanocyclopenta [8]annulen-5-yl)oxy)-2-oxoethyl)propane-1,3-diaminium) 2,2,2-trifluoroacetate] | 8.38 |
